Measured values reported in PubChem BioAssay (NCI).
“And” between values parts separate entries of the source, which are not always exact repeats. Equal entries are not always repeated.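 Compound exposure: 48 hours, 5 concentrations, 96-well plates. GI50 is the concentration that inhibits growth by half. TGI: total growth inhibition.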 Where a SMILES comes first, the peptide text is derived from it. The star is where a group is joined. Boc = CC(C)(C)OC(=O)*; OBn = c1ccc(CO*)cc1; Bn = c1ccc(C*)cc1

Assays:
Assay in all cases: DTP human tumour cell line panel, 48 h
NCI-H522 lung = tested on: NCI-H522 lung
OVCAR-8 ovarian = tested on: OVCAR-8 ovarian
HOP-18 NSCLC = tested on: HOP-18 NSCLC
SNB-78 CNS = tested on: SNB-78 CNS
KM20L2 colon = tested on: KM20L2 colon
DMS 273 small cell lung = tested on: DMS 273 small cell lung
LXFL 529 NSCLC = tested on: LXFL 529 NSCLC
DLD-1 colon = tested on: DLD-1 colon
DMS 114 small cell lung = tested on: DMS 114 small cell lung
XF 498 CNS = tested on: XF 498 CNS
M19-MEL melanoma = tested on: M19-MEL melanoma
SN12K1 renal = tested on: SN12K1 renal

| Compound | TGI (NCI-H522 lung) | TGI (OVCAR-8 ovarian) | also measured |
| --- | --- | --- | --- |
| Cc1cc(C)c2c(=O)n(CC(O)CN3CCN(c4ncccn4)CC3)sc2n1 (stereo unspecified) | 26.6 µM | 38.2 µM | – |
| CS(=O)(=O)c1nc(-c2cc3c(c(S(C)(=O)=O)n2)CCC3)cc2c1CCC2 | > 100 µM | > 100 µM | – |
| O=C(/C=C/c1ccccc1O)CC(=O)/C=C/c1ccccc1O | 9.83 µM | 23.3 µM | – |
| Nc1nc(-c2ccccc2)cc(-c2ccc(F)cc2)c1-c1ccc(Cl)cc1 | – | > 100 µM | – |
| COC(=O)c1ccc2c(c1)CCN2C(=O)c1cc2c(cc1Br)OCO2 | 0.4 µM and 0.29 µM | 50 µM and 14.7 µM | GI50 (NCI-H522 lung): 0.0801 µM; GI50 (OVCAR-8 ovarian): 1.52 µM |
| CCOC(=O)C(C(N)=O)c1nc2cc([N+](=O)[O-])ccc2nc1/C=C(\O)c1ccc(C)cc1 (stereo unspecified) | 47.8 µM | 40.1 µM | – |
| O=C1CCCc2ccc3c(c21)CC1(Cc2cc4c(cc2C1)CCCC4)C3 | 35.5 µM | 47.4 µM | – |
| N#CCCN(CCN(CCN(C(=O)Nc1ccccc1)c1ccccc1)C(=O)Nc1ccccc1)C(=O)Nc1ccccc1 | – | > 100 µM | – |
| CCCCC(=O)Nc1ccc2cc(C(=O)OC)c(=O)[nH]c2n1 | > 100 µM | > 100 µM | – |
| CCCCc1ccc(Nc2nc(N)c3[nH]cnc3n2)cc1 | 28.8 µM | 31.8 µM | – |
| NC(=O)c1ccc(N)nc1 | > 400 µM | > 400 µM | – |
| C=CCn1c(-c2ccc(N=NNc3ccc(-c4n[nH]c(=S)n4CC=C)cc3)cc2)n[nH]c1=S | > 100 µM | 8.84 µM | – |
| NC(=O)c1ncn(C2CCC(CP(=O)(O)O)C2)c1N (stereo unspecified) | – | > 100 µM | – |
| O=C(O)c1cc(/C=C/c2ccc(O)c(O)c2)ccc1O | > 100 µM | > 100 µM | – |
| Cc1cc(S(=O)(=O)Nc2nc(N)n(-c3ccccc3)n2)c(S)cc1Cl | > 100 µM | > 100 µM | – |
| Brc1ccc2c(c1)[C@H]1CCc3c([nH]c4ccccc34)[C@H]1N2 | – | 27.4 µM | – |
| C/C(=N\NC(=S)N/N=C(\C)c1ccccn1)c1ccccn1 | > 100 µM | > 100 µM | – |
| CCOC(=O)C(NC(=O)Nc1ccccc1)(Nc1cccc(Cl)c1)C(F)(F)F (stereo unspecified) | > 100 µM | > 100 µM | – |
| Clc1ccc2nc3c(c(-c4ccccc4)nn3-c3ccccc3)c(-c3ccccc3)c2c1 | > 100 µM | > 100 µM | – |
| CC(CCC(=O)O)(c1cc(Br)c(O)c(Br)c1)c1cc(Br)c(O)c(Br)c1 | > 100 µM | > 100 µM | – |
| COc1cc(CNc2nc3cc(C(F)(F)F)ccc3nc2C(=O)O)cc(OC)c1OC | > 100 µM | > 100 µM | – |
| Cc1cc2nc(N)n[n+]([O-])c2cc1C | > 100 µM | > 100 µM | – |

| Compound | TGI (NCI-H522 lung) | TGI (OVCAR-8 ovarian) | also measured |
| --- | --- | --- | --- |
| COC12OC3(C4OC41)C(C(=O)O[C@H]3CO[Si](C)(C)C(C)(C)C)C2S(=O)(=O)c1ccccc1 (stereo partly specified) | 50.4 µM | > 100 µM | – |
| C=C1CN(C(=O)c2cc3cc(OC)c(OC)c(OC)c3[nH]2)c2cc([N+](=O)[O-])ccc21 | – | > 100 µM | – |
| N.N.NCCCCN.O=C([O-])CCl.O=C([O-])CCl.O=C([O-])CCl.O=C([O-])CCl.[Pt+4].[Pt+4] | > 50 µM | > 50 µM | GI50 (HOP-18 NSCLC): > 50 µM; TGI (HOP-18 NSCLC): > 50 µM; GI50 (SNB-78 CNS): > 50 µM; TGI (SNB-78 CNS): > 50 µM; GI50 (KM20L2 colon): > 50 µM; TGI (KM20L2 colon): > 50 µM; GI50 (DMS 273 small cell lung): 36 µM; TGI (DMS 273 small cell lung): > 50 µM; GI50 (LXFL 529 NSCLC): > 50 µM; TGI (LXFL 529 NSCLC): > 50 µM; GI50 (DLD-1 colon): > 50 µM; TGI (DLD-1 colon): > 50 µM |
| COC(=O)[C@@]12CC3CN(Cc4c1[nH]c1ccccc41)C2CC3=O | > 100 µM | > 100 µM | – |
| CC12CCC3=C(CSC4=C3CSc3ccccc34)C1=CCCC2=O (stereo unspecified) | > 100 µM | > 100 µM | TGI (DMS 114 small cell lung): > 100 µM; TGI (HOP-18 NSCLC): > 100 µM; TGI (XF 498 CNS): 87.3 µM; TGI (KM20L2 colon): > 100 µM; TGI (DMS 273 small cell lung): > 100 µM; TGI (LXFL 529 NSCLC): > 100 µM; TGI (DLD-1 colon): > 100 µM; TGI (M19-MEL melanoma): > 100 µM |
| CCCCOP(=O)(OCCCC)C(NS(=O)(=O)c1ccccc1)(C(=O)OCC)C(F)(F)F (stereo unspecified) | – | > 100 µM | – |
| CC(C)=CCC[C@@H](C)c1c(O)c(O)c(C)c2nc3ccccc3nc12 | – | 24.2 µM | – |
| C(=C/c1ccc2nc(-c3ccc(/C=C/C=N/NC4=NCCCN4)cc3)cn2c1)/C=N/NC1=NCCCN1 | 34.3 µM | 39 µM | – |
| CCOC(=O)n1c2ccccc2c2c(O)c(OC)c3c(c21)C(=O)NC3=O | > 100 µM | > 100 µM | – |
| NCCCCN(CCCN)C(=O)OCc1ccccc1 | > 100 µM | > 100 µM | – |
| COc1cc(C(C)(C)C)c(OC(=O)/C=C/C(=O)O/C=C/[N+](=O)[O-])c(C(C)(C)C)c1 | 85.7 µM | > 100 µM | – |
| O=C(O)C(C1NCCS1)N1Cc2ccccc2C1 (stereo unspecified) | – | > 100 µM | – |
| CC1CCC(O)/C=C/C(=O)OC(C)C(O)/C=C/C(=O)O1 (stereo unspecified) | > 58.6 µM | > 100 µM | – |
| COc1ccc(/C=N/N=C(N)N)c(C(=O)O)c1OC | > 100 µM | > 100 µM | TGI (DMS 114 small cell lung): > 100 µM; TGI (HOP-18 NSCLC): > 100 µM; TGI (SNB-78 CNS): > 100 µM; TGI (KM20L2 colon): > 100 µM; TGI (DMS 273 small cell lung): > 100 µM; TGI (LXFL 529 NSCLC): > 100 µM |
| CN(C)c1ccc(C(=C2C=CC(=[N+](C)C)C=C2)c2c(O)c(S(=O)(=O)[O-])cc3cc(S(=O)(=O)O)ccc23)cc1 | > 100 µM | > 100 µM | – |
| O=C(NC12CC3CC(CC(C3)C1)C2)n1cnc2cncnc21 | 53.8 µM | > 100 µM | – |
| O=c1[nH]nc(Nc2ccccc2)c2nnn(Cc3ccccc3)c12 | > 100 µM | > 100 µM | – |
| COc1ccc(/C=C/C=C2C(=O)NC(=S)NC2=O)cc1 | – | 13.1 µM | – |
| COC(=O)/C=C1\C(=O)N(C(C)=O)c2ccccc21 | 15.6 µM | 45.6 µM | – |
| NC1=CN2c3ccccc3N(CC(=O)N3CCOCC3)C2C=C1 (stereo unspecified) | > 100 µM | > 100 µM | – |
| CN(CCN(C)Cc1ccc(Cl)c(Cl)c1)CCN1CCCC1 | 46.9 µM | > 100 µM | – |
| Cc1cc([C@H](C#N)c2nc3ccccc3s2)nc(Cl)n1 | – | 14.3 µM | – |

| Compound | TGI (NCI-H522 lung) | TGI (OVCAR-8 ovarian) | also measured |
| --- | --- | --- | --- |
| COC(CO[Si](C)(C)N[Si](C)(C)OCC(OC)c1ccccc1)c1ccccc1 (stereo unspecified) | – | > 100 µM | – |
| O=C(OCc1ccccc1[N+](=O)[O-])N1c2ccccc2[C@@]23O[C@]24CCC[C@H]3C#C/C=C\C#C[C@H]14 | > 100 µM | > 100 µM | – |
| COc1c2c(cc3oc(=O)ccc13)OC(C)(C)C=C2 | 63.9 µM | 75.1 µM | – |
| c1ccc2c3c(c(N4CCNCC4)nc2c1)CCCC3 | 31.5 µM | 29.6 µM | – |
| CCCc1c(OC)c(O)c2c(=O)cc(OC)c3c4c(OC)cc(=O)c5c(O)c(OC)c(CCC)c(c1c23)c54 | 9.53 µM | 22.6 µM | – |
| CCOC(=O)Cn1c(=O)c2cc(C)cc3c(Cl)nc4c(OC)c(OC)cc1c4c32 | > 100 µM | > 100 µM | – |
| O=c1[nH]c(=O)n(COCCO)cc1-c1ccccc1 | > 100 µM | > 100 µM | – |
| O=C(O)CC(Cc1ccccc1)C(=O)O (stereo unspecified) | > 100 µM | > 100 µM | – |
| NC(=O)NC1=NCCC(=O)N1CCc1c[nH]c2ccccc12 | 52.1 µM | 32.2 µM | – |
| Cc1ccc(N=c2oc3c(ccc4ccccc43)nc2Nc2ccc(C)cc2)cc1 | > 100 µM | > 100 µM | – |
| CCNc1nc2ccccc2nc1NCC | > 100 µM | > 100 µM | – |
| Nc1c2c(nc3ccccc13)-c1ccccc1CCC2 | 32.4 µM | 29.1 µM | – |
| CN(C)CCNc1ccccn1 | > 100 µM | > 100 µM | – |
| O=C(CSCC(=O)N/N=C/c1ccc(F)cc1)N/N=C/c1ccc(F)cc1 | > 100 µM | > 100 µM | – |
| CSCC[C@@H](NC(=O)[C@H](CC(C)C)NC(=O)C(Cc1cnc[nH]1)NC(=O)CNC(=O)[C@@H](NC(=O)[C@H](C)NC(=O)[C@H](Cc1cn(C=O)c2ccccc12)NC(=O)[C@H](CCC(N)=O)NC(=O)[C@@H](N)CC(N)=O)C(C)C)C(N)=O (stereo partly specified) | > 100 µM | > 100 µM | TGI (DMS 114 small cell lung): > 100 µM; TGI (HOP-18 NSCLC): > 100 µM; TGI (XF 498 CNS): > 100 µM; TGI (SNB-78 CNS): > 100 µM; TGI (KM20L2 colon): > 100 µM; TGI (DMS 273 small cell lung): > 100 µM; TGI (DLD-1 colon): > 100 µM; TGI (SN12K1 renal): > 100 µM; TGI (M19-MEL melanoma): > 100 µM |
| c1ccc2c(c1)N=c1ccccc1=P21c2ccccc2Nc2ccccc21 | 0.913 µM | 5.62 µM | – |
| COC(=O)c1ccc2c(c1)CC1(C2)Cc2ccc3c(c2C1)CCC3 (stereo unspecified) | 66.8 µM | > 100 µM | – |
| CC(C)OCC(O)COc1cc(=O)oc2ccccc12 (stereo unspecified) | > 100 µM | > 100 µM | – |
| O=C1OS2(OC(=O)c3cccc4cccc2c34)c2ccccc21 (stereo unspecified) | > 100 µM | > 100 µM | – |
| O=C1N2CCN=C2c2ccccc2C1(O)c1ccccc1 (stereo unspecified) | – | > 100 µM | – |
| C/C(=C/CC[C@](C)(OC1OC(CO)C(O)C(O)C1OC1OC(C)C(O)C(O)C1O)[C@H]1CC[C@]2(C)[C@@H]1CC[C@@H]1[C@@]3(C)CC[C@H](O)C(C)(C)[C@@H]3C[C@H](O)[C@]12C)CO (stereo partly specified) | > 100 µM | > 100 µM | – |
| CC(C)CC(NC(=O)C(CCC(=O)OCc1ccccc1)NC(=O)OC(C)(C)C)C(=O)NC(COCc1ccccc1)C(=O)NC(Cc1ccccc1)C(=O)O (stereo unspecified) (Boc-E(OBn)LS(Bn)F-OH; configuration not given here) | – | > 100 µM | – |
